Assay [1] addresses T1, usual BChE (Homo sapiens, UniProt P06276).
T1 construct: Human native serum was used as a source of BChE; from tissue; host or cells: human serum (donor, IMROH Zagreb)
As to the kind of experiment: biochemical. In kind it is biochemical. The settings on record: for inhibition potency higher than other compounds of the same group: usual BChE, versus other resorcinol-, catechol- or saligenin-based compounds. The protocol: (§1) ATCh was used as a substrate for AChE and PTCh as a substrate for BChE. The reaction mixture contained DTNB (final concentration 0.3 mM), buffer, enzyme suspension, inhibitor (0.5–10 mM) and ATCh or PTCh (0.025–1.0 mM). Inhibition of enzymes was determined by measuring the decrease in enzyme activity in the presence of inhibitors.
(§2) The dissociation constant for an enzyme–inhibitor complex K(I) was evaluated from the impact of substrate concentrations [S] on the degree of inhibition applying the Hunter–Downs equation[17]^,[39]: Ki,app=vi/v0-vi·[I]=K(I)+K(I)/K(S)·[S] where Ki,app is an apparent enzyme-reversible inhibitor complex dissociation constant obtained at a given substrate concentration [S] in the presence of inhibitor concentration [I] and calculated from the enzyme activities v0 and vi measured without inhibitor and in the presence of inhibitor concentration [I], respectively. K(I) is the enzyme-reversible inhibitor complex dissociation constant and can stand for a complex formed at the catalytic site or for a complex formed at the peripheral site of the enzyme. K(S) is the enzyme-substrate dissociation constant that could be approximated to the Michaelis constant or to the enzyme-substrate dissociation constant when two molecules of the substrate are bound to the enzyme.

Assay [2] addresses T2, human AChE (Homo sapiens, UniProt P22303). In words: biochemical. Format: biochemical. Here is the method:
as §1, §2

Assay [3] deals with T3, fluoride-resistant BChE (Homo sapiens, UniProt P06276). The note with it: substrate PTCh, K(I) ± SE. The protocol: as §1, §2
T3 sequence (P06276 29-602, stated change not applied): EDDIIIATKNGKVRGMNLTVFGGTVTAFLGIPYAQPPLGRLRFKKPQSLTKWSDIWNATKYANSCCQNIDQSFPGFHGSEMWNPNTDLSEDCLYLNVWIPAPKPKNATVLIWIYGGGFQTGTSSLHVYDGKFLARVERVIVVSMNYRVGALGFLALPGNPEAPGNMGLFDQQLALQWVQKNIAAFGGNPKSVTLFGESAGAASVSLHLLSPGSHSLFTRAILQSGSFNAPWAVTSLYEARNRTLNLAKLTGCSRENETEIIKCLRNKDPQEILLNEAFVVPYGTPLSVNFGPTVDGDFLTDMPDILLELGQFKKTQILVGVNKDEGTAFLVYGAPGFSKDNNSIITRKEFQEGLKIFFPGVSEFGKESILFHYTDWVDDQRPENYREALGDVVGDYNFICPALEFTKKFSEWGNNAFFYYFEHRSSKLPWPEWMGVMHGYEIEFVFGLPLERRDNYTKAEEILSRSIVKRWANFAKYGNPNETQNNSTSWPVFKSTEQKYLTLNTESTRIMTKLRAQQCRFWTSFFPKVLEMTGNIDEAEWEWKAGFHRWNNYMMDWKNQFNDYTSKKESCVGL
Assay [4] deals with T4, atypical BChE (Homo sapiens, UniProt P06276, D98G).
T4 construct: Human native serum was used as a source of BChE; from tissue; host or cells: human serum
T4 sequence (P06276 29-602 D98G): as the sequence (P06276 29-602, stated change not applied) above, with D70G counted along it
In words: Reversible inhibition of atypical BChE (Ellman method, Hunter–Downs evaluation). Format: biochemical. The protocol:
as §1, §2
In general terms: Ellman's reagent forms a yellow product with free thiols.

Another assay deals with β-adrenoceptor. The note with it: more potent than (S)-enantiomer; cited from earlier work.
The target in assay [5] is T3, fluoride-resistant BChE. The note with it: K(I) ± SE; cited from earlier work.
For assay [6], the target named is T1, usual BChE. The settings on record: K(I) ± SE, cited from earlier work.
Assay [7] addresses T4, atypical BChE. The settings on record: K(I) ± SE; cited from earlier work.
The target of assay [8] is T2, human AChE. The note with it: K(I) ± SE; cited from earlier work.
Where [9] appears, read: enantiomers, substrate PTCh, pH 7.4, 25 °C, K(I) ± SE, read-out: K(I).
[10] abbreviates: enantiomers, substrate ATCh, pH 7.4, 25 °C, K(I) ± SE, read-out: K(I).
[11] abbreviates: racemate, 0.1 M phosphate buffer pH 7.4, 25 °C.

Read-outs that look alike come from different tables or passages of the source.

T1 sequence (P06276 29-602): as the sequence (P06276 29-602, stated change not applied) above
T2 sequence (P22303 32-614): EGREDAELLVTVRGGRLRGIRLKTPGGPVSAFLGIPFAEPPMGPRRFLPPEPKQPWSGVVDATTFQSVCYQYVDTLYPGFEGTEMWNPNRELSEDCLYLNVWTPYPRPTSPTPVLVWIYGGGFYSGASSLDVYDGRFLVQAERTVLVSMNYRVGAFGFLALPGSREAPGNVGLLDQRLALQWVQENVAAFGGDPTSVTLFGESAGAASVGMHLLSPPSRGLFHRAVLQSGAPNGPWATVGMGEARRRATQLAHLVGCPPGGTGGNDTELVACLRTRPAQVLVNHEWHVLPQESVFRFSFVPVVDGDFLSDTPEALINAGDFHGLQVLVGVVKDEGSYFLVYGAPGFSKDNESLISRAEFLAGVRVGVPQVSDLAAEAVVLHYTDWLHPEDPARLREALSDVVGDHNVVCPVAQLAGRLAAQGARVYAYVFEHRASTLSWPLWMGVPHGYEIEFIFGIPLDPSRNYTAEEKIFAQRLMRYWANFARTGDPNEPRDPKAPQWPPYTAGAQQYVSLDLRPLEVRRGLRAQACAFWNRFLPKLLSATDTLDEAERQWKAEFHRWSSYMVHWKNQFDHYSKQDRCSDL

Regarding `CC(C)NC[C@H](O)c1ccc(O)c(O)c1` [(R)-isoproterenol], the Ki at usual BChE [1] (setting [9]) turned out to be 810 ± 130 µM; on human AChE [2] (setting [10]), 2000 ± 500 µM; on fluoride-resistant BChE [3] (enantiomers, pH 7.4, 25 °C) it was 1400 ± 200 µM; on atypical BChE [4] (setting [9]), 1400 ± 100 µM.

On to `CC(C)(C)NC[C@H](O)c1ccc(O)c(CO)c1` [(R)-salbutamol], for which the Ki on usual BChE [1] (setting [9]) amounted to 190 ± 40 µM; on human AChE [2] (setting [10]), 4000 ± 300 µM; at fluoride-resistant BChE [3] (enantiomers, pH 7.4, 25 °C), 300 ± 60 µM; at atypical BChE [4] (setting [9]) it was 2300 ± 200 µM. In addition, in the assay on β-adrenoceptor, the “potency as β-adrenoceptor agonist relative to (S)-enantiomer” value was “approximately 80 times”.

On to `OCc1cc([C@@H](O)CNCCCCCCOCCCCc2ccccc2)ccc1O` [(R)-salmeterol], for which the Ki at usual BChE [1] (setting [9]) was 15 ± 1 µM; on human AChE [2] (setting [10]) it was 33 ± 3 µM; on fluoride-resistant BChE [3] (enantiomers, pH 7.4, 25 °C), 31 ± 4 µM; on atypical BChE [4] (setting [9]), 71 ± 19 µM.

For `CC(C)(C)NC[C@H](O)c1cc(O)cc(O)c1` [(R)-terbutaline], the Ki stood at 110 ± 30 µM at usual BChE [1] (setting [9]); 2000 ± 300 µM at human AChE [2] (setting [10]); 220 ± 50 µM on fluoride-resistant BChE [3] (enantiomers, pH 7.4, 25 °C); 1000 ± 100 µM at atypical BChE [4] (setting [9]). Also, the “stereoselectivity: preference for (R) enantiomer over racemate” value is listed as 2 fold on human AChE [2] (AChE, K(I) racemate versus (R) enantiomer) and 3 fold at atypical BChE [4] (atypical BChE, K(I) racemate versus (R) enantiomer).

`CC(C)(C)NC[C@@H](O)c1ccc(O)c(CO)c1` [(S)-salbutamol]: the Ki at usual BChE [1] (setting [9]) came to 310 ± 50 µM; on human AChE [2] (setting [10]), 1800 ± 100 µM; at fluoride-resistant BChE [3] (enantiomers, pH 7.4, 25 °C), 300 ± 40 µM; at atypical BChE [4] (setting [9]) it was 1500 ± 200 µM.

Regarding `OCc1cc([C@H](O)CNCCCCCCOCCCCc2ccccc2)ccc1O` [(S)-salmeterol], the Ki at usual BChE [1] (setting [9]) is 15 ± 1 µM; on human AChE [2] (setting [10]), 28 ± 6 µM; on fluoride-resistant BChE [3] (enantiomers, pH 7.4, 25 °C) it was 20 ± 3 µM; on atypical BChE [4] (setting [9]), 67 ± 13 µM.

For the molecule `CNC[C@H](O)c1ccc(O)c(O)c1` [Epinephrine], the Ki at usual BChE [1] was determined as 3700 ± 1200 µM; on human AChE [2], 6400 ± 1100 µM; on fluoride-resistant BChE [3] (setting [11]), 3800 ± 1500 µM; at atypical BChE [4] (read-out: K(I)), 1600 ± 1000 µM. In addition, on usual BChE [1], the “selectivity: inhibition of usual BChE more potent than AChE (ratio of K(I) constants)” value is given as “lowest selectivity”.

For `CC(Cc1ccc(O)cc1)NCC(O)c1cc(O)cc(O)c1` (centres unmarked) [Fenoterol], the Ki at usual BChE [1] turned out to be 24 ± 1 µM; on human AChE [2], 860 ± 50 µM; on fluoride-resistant BChE [3] (setting [11]), 61 ± 17 µM; at atypical BChE [4], 630 ± 30 µM.

As to `CCC(NC(C)C)C(O)c1ccc(O)c(O)c1` (centres unmarked) [Isoetharine], the Ki at usual BChE [1] (read-out: K(I)) is 31 ± 3 µM; at human AChE [2] (read-out: K(I)), 210 ± 40 µM; at fluoride-resistant BChE [3] (setting [11]), 86 ± 4 µM; on atypical BChE [4] it was 260 ± 50 µM. Moreover, the “inhibition potency higher than other compounds of the same group” value against usual BChE [1] is listed as no more than 120 times. Also, on human AChE [2] (AChE, compared to isoproterenol), the higher inhibition potency is recorded as 12 fold.

Take `CC(C)NCC(O)c1ccc(O)c(O)c1` (centres unmarked) [Isoproterenol]: the “increase in inhibition potency” value at human AChE [2] (AChE, compared to epinephrine) is listed as 2 fold. The Ki is 990 ± 120 µM on fluoride-resistant BChE [5], 470 ± 210 µM at usual BChE [6] (read-out: K(I)), 1600 ± 300 µM on atypical BChE [7] and 2500 ± 1000 µM at human AChE [8].

For the molecule `CC(C)NCC(O)c1cc(O)cc(O)c1` (centres unmarked) [Metaproterenol], the Ki was 870 ± 180 µM on fluoride-resistant BChE [5], 550 ± 110 µM on usual BChE [6] and 6100 ± 700 µM at atypical BChE [7].

Turning to `CC(C)(C)NCC(O)c1ccc(O)c(CO)c1` (centres unmarked) [Salbutamol], the Ki is 71 ± 6 µM at usual BChE [1], 2000 ± 200 µM on human AChE [2], 190 ± 20 µM on fluoride-resistant BChE [3] (setting [11]) and 1400 ± 200 µM on atypical BChE [4]. In addition, the “selectivity: inhibition of usual BChE more potent than AChE (ratio of K(I) constants)” value at usual BChE [1] came out at 28 times. Also, the higher inhibition potency result on human AChE [2] (AChE, compared to terbutaline) is reported as “two times”.

As to `OCc1cc(C(O)CNCCCCCCOCCCCc2ccccc2)ccc1O` (centres unmarked) [Salmeterol], the Ki at usual BChE [1] was 13 ± 1 µM; on human AChE [2], 30 ± 2 µM; at fluoride-resistant BChE [3] (setting [11]), 9.8 ± 2.3 µM; at atypical BChE [4], 86 ± 18 µM. Besides, at usual BChE [1], the “selectivity: inhibition of usual BChE more potent than AChE (ratio of K(I) constants)” value is “two times”. Also, the “inhibition potency higher than other compounds of the same group” value against usual BChE [1] was no more than 5.5 times. On human AChE [2] (AChE, salmeterol versus salbutamol), the “increase in inhibition potency” value was 67 fold.

As to `CC(C)(C)NCC(O)c1cc(O)cc(O)c1` (centres unmarked) [Terbutaline], the “selectivity: inhibition of usual BChE more potent than AChE (ratio of K(I) constants)” value at usual BChE [1] was determined as 27 times. The Ki on human AChE [2] (read-out: K(I)) was 4800 ± 200 µM; on fluoride-resistant BChE [5] it was 300 ± 320 µM; on usual BChE [6], 180 ± 150 µM; on atypical BChE [7], 3300 ± 700 µM.

As for (R)-epinephrine, the results for the Ki on usual BChE [1] (setting [9]), on human AChE [2] (setting [10]) and on atypical BChE [4] (setting [9]) were 4700 ± 1800 µM, 3200 ± 400 µM and 12000 ± 2000 µM, respectively.

The values are drawn from article PMC6445159, “Resorcinol-, catechol- and saligenin-based bronchodilating β2-agonists as inhibitors of human cholinesterase activity” (Journal of Enzyme Inhibition and Medicinal Chemistry, 2017).
